In US20230165873A1, “Methods of Use for Single Molecule Compounds Providing Multi-Target Inhibition to Treat Covid 19” (priority 2020, published 2023):
pIC50: −log10 of the molar value.

Target: PI3K gamma (Homo sapiens, UniProt P48736)
Assay: PI3K gamma in vitro inhibition
Type: biochemical
Conditions: read-out: IC50 inhibition PI3K gamma
Procedure: (§1) The kinase or bromodomain inhibitory activity of a compound of the invention can be determined by routine methods known to the skilled artisan without undue experimentation, or by procuring relevant analysis by a commercial vendor offering such services. […] In vivo, PI3K inhibition can be determined from target tissue biopsies by standard tissue processing in which cells are disrupted and Western Blot analysis is performed to determine the presence or absence of pAKT (substrate of PI3K) relative to a control sample. PI3K inhibition assays and BTK inhibition assays are known in the art and can be procured commercially through vendors such as Reaction Biology (Malvern, PA). The activity of a compound of the invention as an inhibitor of a bromodomain-containing protein, such as a BET protein, including BRD2, BRD3, BRD4, and/or BRDT, or an isoform or mutant thereof, may be determined in vitro, in vivo, or in a cell line. In vitro assays include assays that determine inhibition of bromodomain-containing proteins. Alternatively, inhibitor binding may be determined by running a competition experiment where a provided compound is incubated with a bromodomain-containing protein, such as a BET protein bound to known ligands, labeled or unlabeled. In vitro bromodomain inhibition assays can be performed using Alpha Screen Technology (Perkin Elmer Life and Analytical Sciences, Shelton, CT). In vivo bromodomain inhibition can be determined indirectly by evaluating the amount of a protein whose gene transcription is influenced or controlled by the bromodomain protein, for example, MYCN protein transcription is controlled by BRD4 (J.E. Delmore et al., Cell 2011, 146, 904-917; A. Puissant, Cancer Discov. 2013, 3, 308-323).
(§2) IC50 inhibition data against the indicated targets were determined for compounds of the invention using standard in vitro assays (Tables 8 and 9).

Chain of PI3K gamma (P48736 whole entry): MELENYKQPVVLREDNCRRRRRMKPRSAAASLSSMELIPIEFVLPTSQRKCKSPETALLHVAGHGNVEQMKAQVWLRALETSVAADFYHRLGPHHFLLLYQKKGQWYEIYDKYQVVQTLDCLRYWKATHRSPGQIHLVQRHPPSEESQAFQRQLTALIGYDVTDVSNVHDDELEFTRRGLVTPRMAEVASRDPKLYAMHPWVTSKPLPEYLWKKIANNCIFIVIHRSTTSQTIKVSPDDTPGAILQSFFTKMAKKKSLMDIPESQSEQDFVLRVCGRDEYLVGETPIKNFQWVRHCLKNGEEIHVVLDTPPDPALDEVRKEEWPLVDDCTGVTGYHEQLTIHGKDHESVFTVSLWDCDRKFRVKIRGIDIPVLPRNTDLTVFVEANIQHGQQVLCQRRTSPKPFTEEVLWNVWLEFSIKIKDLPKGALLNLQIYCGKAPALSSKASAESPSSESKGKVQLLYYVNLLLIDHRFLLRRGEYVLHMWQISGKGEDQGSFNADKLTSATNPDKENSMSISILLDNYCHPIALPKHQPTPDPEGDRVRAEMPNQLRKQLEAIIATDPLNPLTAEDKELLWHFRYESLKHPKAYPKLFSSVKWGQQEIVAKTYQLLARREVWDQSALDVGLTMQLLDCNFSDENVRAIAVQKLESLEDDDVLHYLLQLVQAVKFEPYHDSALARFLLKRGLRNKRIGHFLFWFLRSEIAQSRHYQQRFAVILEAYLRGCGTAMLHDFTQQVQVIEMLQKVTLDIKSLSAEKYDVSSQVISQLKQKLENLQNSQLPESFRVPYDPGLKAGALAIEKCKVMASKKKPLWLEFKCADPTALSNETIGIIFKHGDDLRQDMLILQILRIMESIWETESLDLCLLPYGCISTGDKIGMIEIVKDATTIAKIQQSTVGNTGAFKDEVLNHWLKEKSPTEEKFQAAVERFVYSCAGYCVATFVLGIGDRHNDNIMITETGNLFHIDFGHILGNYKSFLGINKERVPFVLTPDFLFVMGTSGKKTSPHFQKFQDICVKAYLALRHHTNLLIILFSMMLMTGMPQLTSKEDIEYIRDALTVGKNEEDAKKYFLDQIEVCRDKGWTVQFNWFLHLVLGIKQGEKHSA

SMILES | pIC50
CN(C)C(=O)c1cc2cnc(Nc3cccc(-c4csc5c(=O)cc(N6CCOCC6)oc45)c3)nc2n1C1CCCC1 [Compound 18] | 5.00 to 6.00
CN(C)C(=O)c1cc2cnc(Nc3cncc(-c4csc5c(=O)cc(N6CCOCC6)oc45)c3)nc2n1C1CCCC1 [Compound 19] | 5.00 to 6.00
CN(C)C(=O)c1cc2cnc(Nc3cc(C(=O)O)cc(-c4csc5c(=O)cc(N6CCOCC6)oc45)c3)nc2n1C1CCCC1 [Compound 20] | < 4.35
CN(C)C(=O)c1cc2cnc(N(c3cncc(-c4csc5c(=O)cc(N6CCOCC6)oc45)c3)c3ncc4cc(C(=O)N(C)C)n(C5CCCC5)c4n3)nc2n1C1CCCC1 [Compound 21] | 4.35 to 5.00
CN(C)C(=O)c1cc2cnc(Nc3ccc(-c4csc5c(=O)cc(N6CCOCC6)oc45)c(C(=O)NCCN)c3)nc2n1C1CCCC1 [Compound 22] | 4.35 to 5.00
O=C(O)c1cc2cnc(Nc3ccc(-c4csc5c(=O)cc(N6CCOCC6)oc45)cc3)nc2n1C1CCCC1 [Compound 23] | > 6.30
CN(C)C(=O)c1cc2cnc(N3CCOc4cc(-c5csc6c(=O)cc(N7CCOCC7)oc56)ccc43)nc2n1C1CCCC1 [Compound 24] | 5.00 to 6.00

Target: CDK4 cyclinD1 (Homo sapiens, UniProt P11802)
Assay: CDK4 cyclinD1 in vitro inhibition
Type: biochemical
Conditions: not given
Procedure: as §1, §2

Chain of CDK4 cyclinD1 (P11802 whole entry): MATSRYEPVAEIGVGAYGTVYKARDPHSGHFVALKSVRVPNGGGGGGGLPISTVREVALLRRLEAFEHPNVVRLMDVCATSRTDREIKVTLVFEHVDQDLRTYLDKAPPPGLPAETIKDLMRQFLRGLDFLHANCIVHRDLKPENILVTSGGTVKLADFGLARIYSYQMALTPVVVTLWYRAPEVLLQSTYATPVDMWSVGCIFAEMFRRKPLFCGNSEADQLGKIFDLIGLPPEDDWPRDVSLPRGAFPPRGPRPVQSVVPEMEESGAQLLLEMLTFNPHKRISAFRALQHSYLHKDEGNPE
Chain of CDK4 cyclinD1 (P24385 whole entry partner): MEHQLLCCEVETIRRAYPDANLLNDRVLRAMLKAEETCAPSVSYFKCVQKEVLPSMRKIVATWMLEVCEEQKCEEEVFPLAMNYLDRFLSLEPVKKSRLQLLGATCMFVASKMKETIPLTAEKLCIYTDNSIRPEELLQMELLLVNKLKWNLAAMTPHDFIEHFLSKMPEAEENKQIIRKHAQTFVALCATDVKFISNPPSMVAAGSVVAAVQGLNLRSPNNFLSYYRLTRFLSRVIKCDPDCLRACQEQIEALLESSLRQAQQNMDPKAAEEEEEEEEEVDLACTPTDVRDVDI

SMILES | pIC50
CN(C)C(=O)c1cc2cnc(Nc3cccc(-c4csc5c(=O)cc(N6CCOCC6)oc45)c3)nc2n1C1CCCC1 [Compound 18] | > 6.30
CN(C)C(=O)c1cc2cnc(Nc3cncc(-c4csc5c(=O)cc(N6CCOCC6)oc45)c3)nc2n1C1CCCC1 [Compound 19] | > 6.30
CN(C)C(=O)c1cc2cnc(Nc3cc(C(=O)O)cc(-c4csc5c(=O)cc(N6CCOCC6)oc45)c3)nc2n1C1CCCC1 [Compound 20] | 4.35 to 5.00
CN(C)C(=O)c1cc2cnc(N(c3cncc(-c4csc5c(=O)cc(N6CCOCC6)oc45)c3)c3ncc4cc(C(=O)N(C)C)n(C5CCCC5)c4n3)nc2n1C1CCCC1 [Compound 21] | > 6.30
CN(C)C(=O)c1cc2cnc(Nc3ccc(-c4csc5c(=O)cc(N6CCOCC6)oc45)c(C(=O)NCCN)c3)nc2n1C1CCCC1 [Compound 22] | > 6.30
O=C(O)c1cc2cnc(Nc3ccc(-c4csc5c(=O)cc(N6CCOCC6)oc45)cc3)nc2n1C1CCCC1 [Compound 23] | > 6.30
CN(C)C(=O)c1cc2cnc(N3CCOc4cc(-c5csc6c(=O)cc(N7CCOCC7)oc56)ccc43)nc2n1C1CCCC1 [Compound 24] | < 4.35

Target: PI3K beta (Homo sapiens, UniProt P42338)
Assay: PI3K beta in vitro inhibition
Type: biochemical
Conditions: not given
Procedure: as §1

Chain of PI3K beta (P42338 whole entry): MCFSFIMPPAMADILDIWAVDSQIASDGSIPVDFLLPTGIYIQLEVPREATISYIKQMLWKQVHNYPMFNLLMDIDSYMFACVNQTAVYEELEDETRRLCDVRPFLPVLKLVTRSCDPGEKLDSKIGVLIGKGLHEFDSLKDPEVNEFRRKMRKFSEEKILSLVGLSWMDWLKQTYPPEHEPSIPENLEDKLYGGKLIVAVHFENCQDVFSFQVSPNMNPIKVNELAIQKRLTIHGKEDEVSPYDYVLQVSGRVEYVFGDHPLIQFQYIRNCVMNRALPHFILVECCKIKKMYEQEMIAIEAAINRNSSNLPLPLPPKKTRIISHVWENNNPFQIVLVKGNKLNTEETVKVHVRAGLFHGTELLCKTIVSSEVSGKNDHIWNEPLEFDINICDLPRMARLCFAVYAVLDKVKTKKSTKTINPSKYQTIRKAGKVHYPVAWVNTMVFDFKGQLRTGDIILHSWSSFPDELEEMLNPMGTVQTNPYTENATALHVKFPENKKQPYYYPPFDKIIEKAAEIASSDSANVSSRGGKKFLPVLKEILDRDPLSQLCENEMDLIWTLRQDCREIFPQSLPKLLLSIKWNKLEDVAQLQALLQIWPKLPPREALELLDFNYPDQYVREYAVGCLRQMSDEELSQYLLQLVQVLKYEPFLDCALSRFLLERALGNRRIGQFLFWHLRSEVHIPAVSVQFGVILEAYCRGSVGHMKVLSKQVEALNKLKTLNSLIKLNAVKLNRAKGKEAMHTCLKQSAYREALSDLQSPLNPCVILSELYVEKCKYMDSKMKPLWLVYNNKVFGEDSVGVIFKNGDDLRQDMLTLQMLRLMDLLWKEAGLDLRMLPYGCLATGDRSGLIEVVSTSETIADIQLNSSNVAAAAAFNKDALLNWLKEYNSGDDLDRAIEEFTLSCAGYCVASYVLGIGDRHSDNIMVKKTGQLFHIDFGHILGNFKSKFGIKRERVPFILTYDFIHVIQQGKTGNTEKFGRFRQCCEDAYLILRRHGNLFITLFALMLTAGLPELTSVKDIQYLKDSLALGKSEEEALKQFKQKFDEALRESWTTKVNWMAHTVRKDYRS
Chain of PI3K beta (P27986 whole entry partner): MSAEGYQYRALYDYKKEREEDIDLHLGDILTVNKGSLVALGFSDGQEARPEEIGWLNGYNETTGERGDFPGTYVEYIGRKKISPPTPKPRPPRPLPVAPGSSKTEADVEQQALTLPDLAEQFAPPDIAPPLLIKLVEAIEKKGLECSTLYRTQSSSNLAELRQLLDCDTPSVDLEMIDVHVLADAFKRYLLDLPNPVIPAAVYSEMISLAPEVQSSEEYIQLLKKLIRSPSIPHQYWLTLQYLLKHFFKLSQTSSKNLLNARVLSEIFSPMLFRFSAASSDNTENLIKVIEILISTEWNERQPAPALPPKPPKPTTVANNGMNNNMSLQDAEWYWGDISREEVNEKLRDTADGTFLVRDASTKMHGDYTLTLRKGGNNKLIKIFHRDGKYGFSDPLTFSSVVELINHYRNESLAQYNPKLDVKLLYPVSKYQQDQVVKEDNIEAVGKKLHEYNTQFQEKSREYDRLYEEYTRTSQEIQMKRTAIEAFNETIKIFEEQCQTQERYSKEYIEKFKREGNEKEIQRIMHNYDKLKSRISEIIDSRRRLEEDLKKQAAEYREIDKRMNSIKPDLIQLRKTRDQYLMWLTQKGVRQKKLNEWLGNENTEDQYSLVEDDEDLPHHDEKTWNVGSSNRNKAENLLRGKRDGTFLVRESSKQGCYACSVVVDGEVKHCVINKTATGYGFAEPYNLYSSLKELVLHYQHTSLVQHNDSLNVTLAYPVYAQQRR

SMILES | pIC50
CN(C)C(=O)c1cc2cnc(Nc3cccc(-c4csc5c(=O)cc(N6CCOCC6)oc45)c3)nc2n1C1CCCC1 [Compound 18] | > 6.30
CN(C)C(=O)c1cc2cnc(Nc3cncc(-c4csc5c(=O)cc(N6CCOCC6)oc45)c3)nc2n1C1CCCC1 [Compound 19] | > 6.30
CN(C)C(=O)c1cc2cnc(Nc3cc(C(=O)O)cc(-c4csc5c(=O)cc(N6CCOCC6)oc45)c3)nc2n1C1CCCC1 [Compound 20] | 5.00 to 6.00
CN(C)C(=O)c1cc2cnc(N(c3cncc(-c4csc5c(=O)cc(N6CCOCC6)oc45)c3)c3ncc4cc(C(=O)N(C)C)n(C5CCCC5)c4n3)nc2n1C1CCCC1 [Compound 21] | 5.00 to 6.00
CN(C)C(=O)c1cc2cnc(Nc3ccc(-c4csc5c(=O)cc(N6CCOCC6)oc45)c(C(=O)NCCN)c3)nc2n1C1CCCC1 [Compound 22] | > 6.30
O=C(O)c1cc2cnc(Nc3ccc(-c4csc5c(=O)cc(N6CCOCC6)oc45)cc3)nc2n1C1CCCC1 [Compound 23] | > 6.30
CN(C)C(=O)c1cc2cnc(N3CCOc4cc(-c5csc6c(=O)cc(N7CCOCC7)oc56)ccc43)nc2n1C1CCCC1 [Compound 24] | > 6.30

Target: PI3K alpha (Homo sapiens, UniProt P42336)
Assay: PI3K alpha in vitro inhibition
Type: biochemical
Conditions: not given
Procedure: as §1

Chain of PI3K alpha (P42336 whole entry): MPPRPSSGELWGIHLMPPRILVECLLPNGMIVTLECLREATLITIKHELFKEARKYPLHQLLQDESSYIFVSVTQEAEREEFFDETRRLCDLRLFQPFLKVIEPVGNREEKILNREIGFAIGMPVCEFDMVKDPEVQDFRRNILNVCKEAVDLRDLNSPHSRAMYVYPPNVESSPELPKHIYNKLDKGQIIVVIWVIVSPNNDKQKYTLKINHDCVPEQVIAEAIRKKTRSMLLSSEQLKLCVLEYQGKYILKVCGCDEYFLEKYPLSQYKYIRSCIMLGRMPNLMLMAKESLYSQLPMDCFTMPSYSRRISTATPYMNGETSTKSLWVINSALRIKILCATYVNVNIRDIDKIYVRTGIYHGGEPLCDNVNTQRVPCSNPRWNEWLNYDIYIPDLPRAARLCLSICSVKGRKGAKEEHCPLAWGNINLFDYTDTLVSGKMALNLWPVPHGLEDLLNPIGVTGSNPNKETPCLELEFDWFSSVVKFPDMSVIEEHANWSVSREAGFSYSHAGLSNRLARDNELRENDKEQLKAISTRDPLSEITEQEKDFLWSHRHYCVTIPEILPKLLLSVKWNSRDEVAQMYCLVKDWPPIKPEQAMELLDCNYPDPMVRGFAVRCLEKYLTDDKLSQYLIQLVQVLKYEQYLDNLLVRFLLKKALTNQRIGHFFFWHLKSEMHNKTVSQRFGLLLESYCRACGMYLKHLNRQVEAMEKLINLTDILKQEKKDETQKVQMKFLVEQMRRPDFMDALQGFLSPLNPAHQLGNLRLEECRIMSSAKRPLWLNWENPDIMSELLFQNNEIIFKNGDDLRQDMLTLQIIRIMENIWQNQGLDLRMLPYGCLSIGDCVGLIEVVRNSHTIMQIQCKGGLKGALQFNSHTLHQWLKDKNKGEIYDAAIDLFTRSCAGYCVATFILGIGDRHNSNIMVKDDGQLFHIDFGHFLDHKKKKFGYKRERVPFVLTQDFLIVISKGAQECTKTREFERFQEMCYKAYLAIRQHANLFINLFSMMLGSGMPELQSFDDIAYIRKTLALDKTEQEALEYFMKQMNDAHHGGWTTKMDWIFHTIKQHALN
Chain of PI3K alpha (P27986 whole entry partner): as the sequence (P27986 whole entry partner) above

SMILES | pIC50
CN(C)C(=O)c1cc2cnc(Nc3cccc(-c4csc5c(=O)cc(N6CCOCC6)oc45)c3)nc2n1C1CCCC1 [Compound 18] | 6.00 to 6.30
CN(C)C(=O)c1cc2cnc(Nc3cncc(-c4csc5c(=O)cc(N6CCOCC6)oc45)c3)nc2n1C1CCCC1 [Compound 19] | 6.00 to 6.30
CN(C)C(=O)c1cc2cnc(Nc3cc(C(=O)O)cc(-c4csc5c(=O)cc(N6CCOCC6)oc45)c3)nc2n1C1CCCC1 [Compound 20] | 5.00 to 6.00
CN(C)C(=O)c1cc2cnc(N(c3cncc(-c4csc5c(=O)cc(N6CCOCC6)oc45)c3)c3ncc4cc(C(=O)N(C)C)n(C5CCCC5)c4n3)nc2n1C1CCCC1 [Compound 21] | 5.00 to 6.00
CN(C)C(=O)c1cc2cnc(Nc3ccc(-c4csc5c(=O)cc(N6CCOCC6)oc45)c(C(=O)NCCN)c3)nc2n1C1CCCC1 [Compound 22] | 6.00 to 6.30
O=C(O)c1cc2cnc(Nc3ccc(-c4csc5c(=O)cc(N6CCOCC6)oc45)cc3)nc2n1C1CCCC1 [Compound 23] | > 6.30
CN(C)C(=O)c1cc2cnc(N3CCOc4cc(-c5csc6c(=O)cc(N7CCOCC7)oc56)ccc43)nc2n1C1CCCC1 [Compound 24] | > 6.30

Target: T1, BRD4-2 (Homo sapiens, UniProt O60885)
T1 construct: BRD4-2
Assay: BRD4-2 in vitro inhibition
Type: binding
Conditions: not given
Procedure: as §1

SMILES | pIC50
CN(C)C(=O)c1cc2cnc(Nc3cccc(-c4csc5c(=O)cc(N6CCOCC6)oc45)c3)nc2n1C1CCCC1 [Compound 18] | 6.00 to 6.30
CN(C)C(=O)c1cc2cnc(Nc3cncc(-c4csc5c(=O)cc(N6CCOCC6)oc45)c3)nc2n1C1CCCC1 [Compound 19] | 5.00 to 6.00
CN(C)C(=O)c1cc2cnc(Nc3cc(C(=O)O)cc(-c4csc5c(=O)cc(N6CCOCC6)oc45)c3)nc2n1C1CCCC1 [Compound 20] | < 4.35
CN(C)C(=O)c1cc2cnc(N(c3cncc(-c4csc5c(=O)cc(N6CCOCC6)oc45)c3)c3ncc4cc(C(=O)N(C)C)n(C5CCCC5)c4n3)nc2n1C1CCCC1 [Compound 21] | 5.00 to 6.00
CN(C)C(=O)c1cc2cnc(Nc3ccc(-c4csc5c(=O)cc(N6CCOCC6)oc45)c(C(=O)NCCN)c3)nc2n1C1CCCC1 [Compound 22] | 5.00 to 6.00
O=C(O)c1cc2cnc(Nc3ccc(-c4csc5c(=O)cc(N6CCOCC6)oc45)cc3)nc2n1C1CCCC1 [Compound 23] | 5.00 to 6.00

Target: T2, BRD4-1 (Homo sapiens, UniProt O60885)
T2 construct: BRD4-1
Assay: BRD4-1 in vitro inhibition
Type: binding
Conditions: not given
Procedure: as §1

SMILES | pIC50
CN(C)C(=O)c1cc2cnc(Nc3cccc(-c4csc5c(=O)cc(N6CCOCC6)oc45)c3)nc2n1C1CCCC1 [Compound 18] | 5.00 to 6.00
CN(C)C(=O)c1cc2cnc(Nc3cncc(-c4csc5c(=O)cc(N6CCOCC6)oc45)c3)nc2n1C1CCCC1 [Compound 19] | 5.00 to 6.00
CN(C)C(=O)c1cc2cnc(Nc3cc(C(=O)O)cc(-c4csc5c(=O)cc(N6CCOCC6)oc45)c3)nc2n1C1CCCC1 [Compound 20] | 4.35 to 5.00
CN(C)C(=O)c1cc2cnc(N(c3cncc(-c4csc5c(=O)cc(N6CCOCC6)oc45)c3)c3ncc4cc(C(=O)N(C)C)n(C5CCCC5)c4n3)nc2n1C1CCCC1 [Compound 21] | 5.00 to 6.00
CN(C)C(=O)c1cc2cnc(Nc3ccc(-c4csc5c(=O)cc(N6CCOCC6)oc45)c(C(=O)NCCN)c3)nc2n1C1CCCC1 [Compound 22] | < 4.35
O=C(O)c1cc2cnc(Nc3ccc(-c4csc5c(=O)cc(N6CCOCC6)oc45)cc3)nc2n1C1CCCC1 [Compound 23] | 6.00 to 6.30

Target: CDK6 cyclinD1 (Homo sapiens, UniProt Q00534)
Assay: CDK6 cyclinD1 in vitro inhibition
Type: biochemical
Conditions: not given
Procedure: as §1, §2

Chain of CDK6 cyclinD1 (Q00534 whole entry): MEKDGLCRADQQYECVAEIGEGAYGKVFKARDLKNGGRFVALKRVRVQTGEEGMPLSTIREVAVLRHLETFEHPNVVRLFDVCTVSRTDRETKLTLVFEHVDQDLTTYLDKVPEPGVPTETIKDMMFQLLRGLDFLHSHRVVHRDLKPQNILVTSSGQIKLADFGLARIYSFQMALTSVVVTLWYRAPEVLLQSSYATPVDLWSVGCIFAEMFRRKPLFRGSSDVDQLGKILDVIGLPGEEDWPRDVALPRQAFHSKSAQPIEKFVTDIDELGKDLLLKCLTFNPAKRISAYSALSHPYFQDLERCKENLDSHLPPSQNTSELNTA
Chain of CDK6 cyclinD1 (P24385 whole entry partner): as the sequence (P24385 whole entry partner) above

SMILES | pIC50
CN(C)C(=O)c1cc2cnc(Nc3cccc(-c4csc5c(=O)cc(N6CCOCC6)oc45)c3)nc2n1C1CCCC1 [Compound 18] | > 6.30
CN(C)C(=O)c1cc2cnc(Nc3cncc(-c4csc5c(=O)cc(N6CCOCC6)oc45)c3)nc2n1C1CCCC1 [Compound 19] | > 6.30
CN(C)C(=O)c1cc2cnc(Nc3cc(C(=O)O)cc(-c4csc5c(=O)cc(N6CCOCC6)oc45)c3)nc2n1C1CCCC1 [Compound 20] | < 4.35
CN(C)C(=O)c1cc2cnc(N(c3cncc(-c4csc5c(=O)cc(N6CCOCC6)oc45)c3)c3ncc4cc(C(=O)N(C)C)n(C5CCCC5)c4n3)nc2n1C1CCCC1 [Compound 21] | 6.00 to 6.30
CN(C)C(=O)c1cc2cnc(Nc3ccc(-c4csc5c(=O)cc(N6CCOCC6)oc45)c(C(=O)NCCN)c3)nc2n1C1CCCC1 [Compound 22] | > 6.30
O=C(O)c1cc2cnc(Nc3ccc(-c4csc5c(=O)cc(N6CCOCC6)oc45)cc3)nc2n1C1CCCC1 [Compound 23] | > 6.30
